Measurements from ChEMBL document CHEMBL1125120, “Synthesis and anticonvulsant and sedative-hypnotic activity of 4-(alkylimino)-2,3-dihydro-4H-1-benzopyrans and -benzothiopyrans” (J Med Chem, 1990).
Activity calls are given as the source filed them. The calls are words filed in the database; no cut-off is given here.

Legend:
[1] = (§1) Acute toxicity administered per orally; assay type: organism-based; conditions: mouse, in vivo, po
Rattus norvegicus [2] = test: Ability to potentiate pentobarbital-induced sleep administered per orally; assay type: functional; conditions: po
Mus musculus [3] = test: Ability to inhibit seizures induced by electroshock in mice administered per orally; assay type: functional; conditions: po
Mus musculus [4] = test: Ability to inhibit seizures induced by mercaptopropionic acid in mice administered per orally; assay type: functional; conditions: po
Mus musculus [5] = test: Ability to inhibit seizures induced by pentylenetetrazole in mice administered per orally; assay type: functional; conditions: po
Mus musculus [6] = test: Ability to inhibit seizures induced by mercaptopropionic acid in mice administered per orally; i = inactive; assay type: functional, organism-based
Mus musculus [7] = test: Ability to inhibit seizures induced by electroshock in mice administered per orally; i = inactive; assay type: functional, organism-based
Mus musculus [8] = test: as §1; assay type: functional; conditions: po
Rattus norvegicus [9] = test: Ability to potentiate pentobarbital-induced sleep administered per orally; i = inactive; assay type: functional, organism-based

Compound | LD50 [1] [mg/kg] | ED50 (Rattus norvegicus [2]) [mg/kg] | ED50 (Mus musculus [3]) [mg/kg] | ED50 (Mus musculus [4]) [mg/kg] | ED50 (Mus musculus [5]) [mg/kg] | ED50 (Mus musculus [6]) | ED50 (Mus musculus [7]) | LD50 (Mus musculus [8]) [mg/kg] | ED50 (Rattus norvegicus [9])
CCCCCc1cc(O)c2c(c1)SC(C)(C)C[C@H]2NCC(C)O (stereo not given in full) | > 1600 | 9.7 | 20.6 | 8.8 | 4.8 |  |  |  | 
CN1C(=O)CN=C(c2ccccc2)c2cc(Cl)ccc21 [DIAZEPAM] |  |  | 1.2 | 0.7 | 0.5 |  |  |  | 
CCCCc1cc(O)c2c(c1)OC(C)(C)C[C@H]2NCC(C)O (stereo not given in full) | 800 | 14.2 |  |  | 15.5 | inactive | inactive |  | 
CCCCCc1cc(O)c2c(c1)SC(C)(C)C/C2=N\CC(C)O (stereo not given) | > 800 | 10 |  |  | 14.3 |  | inactive |  | 
CCCCCc1cc(O)c2c(c1)SC(C)(C)C/C2=N\CCO |  |  |  |  | 24 | inactive | inactive | > 800 | inactive
CCCC(CCC)C(=O)[O-].[Na+] [VALPROATE SODIUM] |  |  | 206 | 200 | 200 |  |  |  | 
CCCCCc1cc(O)c2c(c1)OC(C)(C)C/C2=N\CCO | > 800 |  |  |  | 19 | inactive | inactive |  | inactive
CCCCCc1cc(O)c2c(c1)OC(C)(C)C/C2=N\C[C@@H](C)O | 800 |  | 13.8 | 9.4 | 14 |  |  |  | inactive
CCCCCc1cc(O)c2c(c1)OC(C)(C)C/C2=N\CC(C)O (stereo not given) | 800 |  |  |  | 24.3 | inactive | inactive |  | inactive
